Source: patent publication US20210300936A1, “PYRAZOLOTRIAZOLOPYRIMIDINE DERIVATIVES AS A2A RECEPTOR ANTAGONIST” (BEIGENE, LTD., priority 2018, published 2021)

The compounds below were run against human A2A receptor (A2AR) (Homo sapiens, UniProt P29274) (assay: Luciferase reporter assay (HEK293-A2AR-luc2p/CRE/Hygro cells, 3 nM CGS21680)). Details: 3 nM CGS21680, 5 h incubation.
Type: cell-based
How it was run: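 HEK293 cells stably expressing A2AR with a CRE-luc2P reporter were seeded in 1% FBS with 1 U/mL adenosine deaminase. After 18 h, cells got 3 nM CGS21680 plus antagonist at 0.1–10000 nM for 5 h, followed by a luciferase readout. IC50 is relative to the 3 nM CGS21680 signal, set as 100%.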

Sequence of human A2A receptor (A2AR) (P29274 whole entry): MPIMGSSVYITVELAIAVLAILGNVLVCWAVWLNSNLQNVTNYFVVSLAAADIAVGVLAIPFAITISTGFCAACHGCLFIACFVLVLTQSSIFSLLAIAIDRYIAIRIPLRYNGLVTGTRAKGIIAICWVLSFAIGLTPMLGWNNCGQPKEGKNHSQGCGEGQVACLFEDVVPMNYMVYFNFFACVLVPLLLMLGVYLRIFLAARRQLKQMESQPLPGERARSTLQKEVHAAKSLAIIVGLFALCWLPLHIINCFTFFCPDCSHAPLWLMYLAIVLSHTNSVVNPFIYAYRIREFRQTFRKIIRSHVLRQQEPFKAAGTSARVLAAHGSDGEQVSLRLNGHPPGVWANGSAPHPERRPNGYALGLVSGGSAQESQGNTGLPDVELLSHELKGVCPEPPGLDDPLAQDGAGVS

SMILES | IC50 [nM]
C[C@@](C(=O)N1CCN(c2ccc(OCCCN3CCCC3)cc2)CC1)(c1ccccc1)n1ncc2c1nc(N)n1nc(-c3ccco3)nc21 [Compound A79a, (S)-2-(5-amino-2-(furan-2-yl)-7H-pyrazolo[4,3-e][1,2,4]triazolo[1,5-c]pyrimidin-7-yl)-2-phenyl-1-(4-(4-(3-(pyrrolidin-1-yl)propoxy)phenyl)piperazin-1-yl)propan-1-one] | 21.4
C[C@](C(=O)N1CCN(c2ccc(OCCCN3CCCC3)cc2)CC1)(c1ccccc1)n1ncc2c1nc(N)n1nc(-c3ccco3)nc21 [Compound A79b, (R)-2-(5-amino-2-(furan-2-yl)-7H-pyrazolo[4,3-e][1,2,4]triazolo[1,5-c]pyrimidin-7-yl)-2-phenyl-1-(4-(4-(3-(pyrrolidin-1-yl)propoxy)phenyl)piperazin-1-yl)propan-1-one] | 6.8
CC(C(=O)N1CCN(c2ccc(OCCN3CCOCC3)cc2)CC1)(c1ccccc1)n1ncc2c1nc(N)n1nc(-c3ccco3)nc21 (stereo not drawn) [Compound A80, 2-(5-amino-2-(furan-2-yl)-7H-pyrazolo[4,3-e][1,2,4]triazolo[1,5-c]pyrimidin-7-yl)-1-(4-(4-(2-morpholinoethoxy)phenyl)piperazin-1-yl)-2-phenylpropan-1-one] | 4.3
C[C@@](C(=O)N1CCN(c2ccc(OCCN3CCOCC3)cc2)CC1)(c1ccccc1)n1ncc2c1nc(N)n1nc(-c3ccco3)nc21 [Compound A80a, (S)-2-(5-amino-2-(furan-2-yl)-7H-pyrazolo[4,3-e][1,2,4]triazolo[1,5-c]pyrimidin-7-yl)-1-(4-(4-(2-morpholinoethoxy)phenyl)piperazin-1-yl)-2-phenylpropan-1-one] | 7.4
C[C@](C(=O)N1CCN(c2ccc(OCCN3CCOCC3)cc2)CC1)(c1ccccc1)n1ncc2c1nc(N)n1nc(-c3ccco3)nc21 [Compound A80b, (R)-2-(5-amino-2-(furan-2-yl)-7H-pyrazolo[4,3-e][1,2,4]triazolo[1,5-c]pyrimidin-7-yl)-1-(4-(4-(2-morpholinoethoxy)phenyl)piperazin-1-yl)-2-phenylpropan-1-one] | 2.8
CN1CCN(CCOc2ccc(N3CCN(C(=O)C(C)(c4ccccc4)n4ncc5c4nc(N)n4nc(-c6ccco6)nc54)CC3)cc2)CC1 (stereo not drawn) [Compound A81, 2-(5-amino-2-(furan-2-yl)-7H-pyrazolo[4,3-e][1,2,4]triazolo[1,5-c]pyrimidin-7-yl)-1-(4-(4-(2-(4-methylpiperazin-1-yl)ethoxy)phenyl)piperazin-1-yl)-2-phenylpropan-1-one] | 4.7
CN1CCN(CCOc2ccc(N3CCN(C(=O)[C@](C)(c4ccccc4)n4ncc5c4nc(N)n4nc(-c6ccco6)nc54)CC3)cc2)CC1 [Compound A81a, (S)-2-(5-amino-2-(furan-2-yl)-7H-pyrazolo[4,3-e][1,2,4]triazolo[1,5-c]pyrimidin-7-yl)-1-(4-(4-(2-(4-methylpiperazin-1-yl)ethoxy)phenyl)piperazin-1-yl)-2-phenylpropan-1-one] | 7.9
CN1CCN(CCOc2ccc(N3CCN(C(=O)[C@@](C)(c4ccccc4)n4ncc5c4nc(N)n4nc(-c6ccco6)nc54)CC3)cc2)CC1 [Compound A81b, (R)-2-(5-amino-2-(furan-2-yl)-7H-pyrazolo[4,3-e][1,2,4]triazolo[1,5-c]pyrimidin-7-yl)-1-(4-(4-(2-(4-methylpiperazin-1-yl)ethoxy)phenyl)piperazin-1-yl)-2-phenylpropan-1-one] | 2.6
CN1CCN(CCCOc2ccc(N3CCN(C(=O)C(C)(c4ccccc4)n4ncc5c4nc(N)n4nc(-c6ccco6)nc54)CC3)cc2)CC1 (stereo not drawn) [Compound A82, 2-(5-amino-2-(furan-2-yl)-7H-pyrazolo[4,3-e][1,2,4]triazolo[1,5-c]pyrimidin-7-yl)-1-(4-(4-(3-(4-methylpiperazin-1-yl)propoxy)phenyl)piperazin-1-yl)-2-phenylpropan-1-one] | 7.1
CN1CCN(CCCOc2ccc(N3CCN(C(=O)[C@](C)(c4ccccc4)n4ncc5c4nc(N)n4nc(-c6ccco6)nc54)CC3)cc2)CC1 [Compound A82a, (S)-2-(5-amino-2-(furan-2-yl)-7H-pyrazolo[4,3-e][1,2,4]triazolo[1,5-c]pyrimidin-7-yl)-1-(4-(4-(3-(4-methylpiperazin-1-yl)propoxy)phenyl)piperazin-1-yl)-2-phenylpropan-1-one] | 12.2
CN1CCN(CCCOc2ccc(N3CCN(C(=O)[C@@](C)(c4ccccc4)n4ncc5c4nc(N)n4nc(-c6ccco6)nc54)CC3)cc2)CC1 [Compound A82b, (R)-2-(5-amino-2-(furan-2-yl)-7H-pyrazolo[4,3-e][1,2,4]triazolo[1,5-c]pyrimidin-7-yl)-1-(4-(4-(3-(4-methylpiperazin-1-yl)propoxy)phenyl)piperazin-1-yl)-2-phenylpropan-1-one] | 4.9
CC(C(=O)N1CCN(c2ccc(C(=O)NCC3(O)COC3)cc2)CC1)(c1ccccc1)n1ncc2c1nc(N)n1nc(-c3ccco3)nc21 (stereo not drawn) [Compound A83, 4-(4-(2-(5-amino-2-(furan-2-yl)-7H-pyrazolo[4,3-e][1,2,4]triazolo[1,5-c]pyrimidin-7-yl)-2-phenylpropanoyl)piperazin-1-yl)-N-((3-hydroxyoxetan-3-yl)methyl)benzamide] | 3.7
CCC(C(=O)N1CCN(c2ccc(OCCOC)cc2)CC1)(c1ccccc1)n1ncc2c1nc(N)n1nc(-c3ccco3)nc21 (stereo not drawn) [Compound A84, 2-(5-amino-2-(furan-2-yl)-7H-pyrazolo[4,3-e][1,2,4]triazolo[1,5-c]pyrimidin-7-yl)-1-(4-(4-(2-methoxyethoxy)phenyl)piperazin-1-yl)-2-phenylbutan-1-one] | 28.3
CC(C(=O)N1CCN(c2ccc(OCCCN3CCCCC3)cc2)CC1)(c1ccccc1)n1ncc2c1nc(N)n1nc(-c3ccco3)nc21 (stereo not drawn) [Compound A85, 2-(5-amino-2-(furan-2-yl)-7H-pyrazolo[4,3-e][1,2,4]triazolo[1,5-c]pyrimidin-7-yl)-2-phenyl-1-(4-(4-(3-(piperidin-1-yl)propoxy)phenyl)piperazin-1-yl)propan-1-one] | 11.6
COCCOc1ccc(N2CCN(C(=O)C(C)(c3cccc(F)c3)n3ncc4c3nc(N)n3nc(-c5ccco5)nc43)CC2)cc1 (stereo not drawn) [Compound A86, 2-(5-amino-2-(furan-2-yl)-7H-pyrazolo[4,3-e][1,2,4]triazolo[1,5-c]pyrimidin-7-yl)-2-(3-fluorophenyl)-1-(4-(4-(2-methoxyethoxy)phenyl)piperazin-1-yl)propan-1-one] | 6.8
COCCOc1ccc(N2CCN(C(=O)C(C)(c3ccccc3F)n3ncc4c3nc(N)n3nc(-c5ccco5)nc43)CC2)cc1 (stereo not drawn) [Compound A87, 2-(5-amino-2-(furan-2-yl)-7H-pyrazolo[4,3-e][1,2,4]triazolo[1,5-c]pyrimidin-7-yl)-2-(2-fluorophenyl)-1-(4-(4-(2-methoxyethoxy)phenyl)piperazin-1-yl)propan-1-one] | 2
CN(C)C(=O)c1cccc(N2CCN(C(=O)C(C)(c3ccccc3)n3ncc4c3nc(N)n3nc(-c5ccco5)nc43)CC2)c1 (stereo not drawn) [Compound A88, 3-(4-(2-(5-amino-2-(furan-2-yl)-7H-pyrazolo[4,3-e][1,2,4]triazolo[1,5-c]pyrimidin-7-yl)-2-phenylpropanoyl)piperazin-1-yl)-N,N-dimethylbenzamide] | 7
CC(C(=O)N1CCN(c2cccc(C(=O)N3CCCCC3)c2)CC1)(c1ccccc1)n1ncc2c1nc(N)n1nc(-c3ccco3)nc21 (stereo not drawn) [Compound A89, 2-(5-amino-2-(furan-2-yl)-7H-pyrazolo[4,3-e][1,2,4]triazolo[1,5-c]pyrimidin-7-yl)-2-phenyl-1-(4-(3-(piperidine-1-carbonyl)phenyl)piperazin-1-yl)propan-1-one] | 13.8
CC(C(=O)N1CCN(c2cccc(C(=O)NC3CCCCC3)c2)CC1)(c1ccccc1)n1ncc2c1nc(N)n1nc(-c3ccco3)nc21 (stereo not drawn) [Compound A90, 2-(5-amino-2-(furan-2-yl)-7H-pyrazolo[4,3-e][1,2,4]triazolo[1,5-c]pyrimidin-7-yl)-2-phenyl-1-(4-(3-(cyclohexanaminocarbonyl)phenyl)piperazin-1-yl)propan-1-one] | 14.1
CC(C(=O)N1CCN(c2cccc(C(=O)NCC3(O)COC3)c2)CC1)(c1ccccc1)n1ncc2c1nc(N)n1nc(-c3ccco3)nc21 (stereo not drawn) [Compound A91, 3-(4-(2-(5-amino-2-(furan-2-yl)-7H-pyrazolo[4,3-e][1,2,4]triazolo[1,5-c]pyrimidin-7-yl)-2-phenylpropanoyl)piperazin-1-yl)-N-((3-hydroxyoxetan-3-yl)methyl)benzamide] | 3.3
CNC(=O)c1ccc(N2CCN(C(=O)C(C)(c3ccccc3)n3ncc4c3nc(N)n3nc(-c5ccco5)nc43)CC2)cc1 (stereo not drawn) [Compound A92, 4-(4-(2-(5-amino-2-(furan-2-yl)-7H-pyrazolo[4,3-e][1,2,4]triazolo[1,5-c]pyrimidin-7-yl)-2-phenylpropanoyl)piperazin-1-yl)-N-methylbenzamide] | 2.7
COCCOc1ccc(N2CCN(C(=O)C(C)(c3ccccc3OC)n3ncc4c3nc(N)n3nc(-c5ccco5)nc43)CC2)cc1 (stereo not drawn) [Compound A93, 2-(5-amino-2-(furan-2-yl)-7H-pyrazolo[4,3-e][1,2,4]triazolo[1,5-c]pyrimidin-7-yl)-1-(4-(4-(2-methoxyethoxy)phenyl)piperazin-1-yl)-2-(2-methoxyphenyl)propan-1-one] | 0.6
CC(C(=O)N1CCN(c2ccccc2C(=O)NC2CCCCC2)CC1)(c1ccccc1)n1ncc2c1nc(N)n1nc(-c3ccco3)nc21 (stereo not drawn) [Compound A94, 2-(4-(2-(5-amino-2-(furan-2-yl)-7H-pyrazolo[4,3-e][1,2,4]triazolo[1,5-c]pyrimidin-7-yl)-2-phenylpropanoyl)piperazin-1-yl)-N-cyclohexylbenzamide] | 3.8
COCCOc1ccc(N2CCN(C(=O)C(C)(c3ccccc3)n3ncc4c3nc(N)n3nc(-c5nccnc5C)nc43)CC2)cc1 (stereo not drawn) [Compound A95, 2-(5-amino-2-(3-methylpyrazin-2-yl)-7H-pyrazolo[4,3-e][1,2,4]triazolo[1,5-c]pyrimidin-7-yl)-1-(4-(4-(2-methoxyethoxy)phenyl)piperazin-1-yl)-2-phenylpropan-1-one] | 31.1
